Measured values from US6835382B2, “Ii peptide therapeutics to enhance antigen presentation” (University of Massachusetts, priority 1996, dated 2004).
Non-standard residues stand in square brackets, D forms with d.

Columns and labels:
[1] = target: T1, murine E^d MHC class II allele (Mus musculus, UniProt P01904+P01915); experiment: AE101 series peptide prepulse assay, E^d allele; assay type: cell-based; details: Table 35; AE101 series peptide prepulse 64 μM; antigenic peptide 0.3 μM; supernatant dilution 1:4
T1 sequence (P01904 26-255): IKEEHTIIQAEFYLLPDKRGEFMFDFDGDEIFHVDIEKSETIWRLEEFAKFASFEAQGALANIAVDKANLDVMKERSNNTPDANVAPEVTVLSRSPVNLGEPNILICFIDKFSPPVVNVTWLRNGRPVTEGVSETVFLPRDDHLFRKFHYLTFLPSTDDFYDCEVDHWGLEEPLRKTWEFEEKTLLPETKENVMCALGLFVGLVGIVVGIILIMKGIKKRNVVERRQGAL
T1 sequence (P01915 27-264 limits assumed): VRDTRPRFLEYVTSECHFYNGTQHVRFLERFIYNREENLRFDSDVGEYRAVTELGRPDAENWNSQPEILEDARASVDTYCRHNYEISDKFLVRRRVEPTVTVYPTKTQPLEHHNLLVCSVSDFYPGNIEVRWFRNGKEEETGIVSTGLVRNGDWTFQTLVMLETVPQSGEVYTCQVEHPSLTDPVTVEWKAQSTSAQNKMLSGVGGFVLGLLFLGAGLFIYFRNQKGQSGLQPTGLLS
Protocol: (§1) Table 35: Activities of multiple substitution analogs of AE235, targeting the E^k and E^d allele, in an AE101 series peptide prepulse assay. In this assay the concentration of AE101 series peptides used during the prepulse was 64 μM. The concentrations of antigenic peptides were 0.3 μM for Ed and 0.4 μM for E^k. The supernatant dilutions taken into the HT-2 cell assay was 1:4 for E and 1:2 for E^k. The AE381 peptide is a head-to-tail cyclization: the amino terminal amino group is coupled through an amide linkage to the carboxyl terminal group. The AE 382 peptide is a side-to-tail cyclization: the epsilon amino group of Lys^4 is coupled through an amide linkage to the carboxyl terminal group.
(§2) AE101 series peptide prepulse assays were carried out in the E^d and E^k systems as described for simultaneous competition assays with the following modifications. Fixed APC were first incubated for 6 h at 1×10^6DMEM-5% FCS with 64 μM of each AE101 series peptide or with PBS. The APC were then washed four times with ten volumes of DMEM-5% FCS, and were cocultured with T hybridoma cells and the indicated submaximal doses of antigenic peptides used in the simultaneous competition assays. The baseline T cell response was measured by culturing T hybridoma cells with antigenic peptide and PBS-pretreated APC.

[2] = system: murine E^k MHC class II allele; experiment: AE101 series peptide prepulse assay, E^k allele; assay type: cell-based; details: Table 35; AE101 series peptide prepulse 64 μM; antigenic peptide 0.4 μM; supernatant dilution 1:2
Protocol: as §1, §2

HLA-DR1 molecules [3] = experiment: release of biotin-labeled hMBP(90-102) from HLA-DR1 in the presence of unlabeled hMBP (assay II); assay type: binding, human; details: for Relative Release, With unlabeled hMBP(90-102), 1 μM / Relative Release, With unlabeled hMBP(90-102), 64 μM: Table 37, unlabeled hMBP(90-102) 250 μM; for Relative Release, With unlabeled hMBP(90-102), 1 μM: AE101 series compound 1 μM; for Relative Release, With unlabeled hMBP(90-102), 64 μM: AE101 series compound 64 μM
HLA-DR1 molecules [4] = experiment: release of biotin-labeled hMBP(90-102) from HLA-DR1 without unlabeled antigenic peptide (assay I); assay type: binding, human; details: for Relative Release, Without unlabeled hMBP(90-102), 1 μM / Relative Release, Without unlabeled hMBP(90-102), 64 μM: Table 37, no unlabeled hMBP(90-102); for Relative Release, Without unlabeled hMBP(90-102), 1 μM: AE101 series compound 1 μM; for Relative Release, Without unlabeled hMBP(90-102), 64 μM / Relative Release: AE101 series compound 64 μM; for Relative Release: Table 36, fraction of o.d. of positive control (PBS only = 1.0; negative control = 0.0)
[5] = system: murine E^d MHC class II allele; experiment: simultaneous assay, E^d allele (A20 APC, G28.C9 T hybridoma, HEL106-116; HT-2 [3H]TdR readout); assay type: cell-based; details: simultaneous assay, Table 14, versus AE114 / AE301; E^d and E^k
Protocol: Examples 1-4 (Tables 1-18) will be briefly considered in order to establish the concept of tolerance discussed above. These examples describe experimental results observed in the so-called “simultaneous” assay. In the simultaneous assay four principle components are cultured together for a 24 hour period. […] The degree of stimulation of that second, indicator cell by the interleukins which had been released from the activated T cell hybridoma in the primary culture is measured by quantitating tritiated thymidine deoxyribose {[^3H]TdR} uptake into the DNA of the HT-2 indicator cells of that second culture.
In the “simultaneous assay” the four components of the assay are cultured together for a 24 h period. […] The degree of stimulation of that second, indicator cell by the interleukins which had been released from the activated T cell hybridoma in the primary culture is measured by quantitating tritiated thymidine deoxyribose {[^3H]TdR} uptake into the DNA of the HT-2 indicator cells of that second culture. […]

Substance	T cell response relative to baseline with PBS-pretreated APC (NONE = 1.0), E^d [1]	T cell response relative to baseline with PBS-pretreated APC (NONE = 1.0), E^k [2]	Relative Release, Without unlabeled hMBP(90-102), 1 μM (HLA-DR1 molecules [4])	Relative Release, Without unlabeled hMBP(90-102), 64 μM (HLA-DR1 molecules [4])	Relative Release, With unlabeled hMBP(90-102), 1 μM (HLA-DR1 molecules [3])	Relative Release, With unlabeled hMBP(90-102), 64 μM (HLA-DR1 molecules [3])	further results
Ac-LRMK D PK-NH2 (Ac-LRMKDPK-NH2) [AE230]	0.8	1.6	–	–	–	–	–
Ac-LRMKLPK-NH2 [AE114]	6.0	2.0	–	–	–	–	release of antigenic peptide from HLA-DR1 in presence of second antigenic peptide, in words (HLA-DR1 molecules [3]; excess second antigenic peptide): can catalyze the release of antigenic peptide from the antigenic peptide binding site only in the presence of excess quantities of a second antigenic peptide
Ac-YRMKL hydrP KSAK-NH2 (Ac-YRMKL[hydrP]KSAK-NH2) [AE143]	–	–	0.51	0.58	0.35	0.21	–
Ac-LR (mL) KLPK-NH2 [AE302]	–	–	–	–	–	–	reduction in activity on substitution of 3-methionine by N-methyl leucine [5]: 50-70%
Ac-LRMK Y PK-NH2 (Ac-LRMKYPK-NH2; not fully specified; printed as Ac-LRMK Y PK-NH2) [AE235]	15.6	2.1	1.05	0.81	0.48	0.6	release of biotin-labeled hMBP(90-102) from HLA-DR1 without second unlabeled antigenic peptide, in words (HLA-DR1 molecules [4]; Table 36 (compounds tested at 64 μM)): did not release; Relative Release (HLA-DR1 molecules [4]): 0.79
YRMKLPKSAKPVSQMR [AE101]	–	–	–	–	–	–	release of hMBP(90-102) from HLA-DR1 (HLA-DR1 molecules [4]; AE peptide at 125 nM, additional experiments): completely release; release of biotin-labeled hMBP(90-102) (Relative Release) (HLA-DR1 molecules [4]; AE peptide at 1 μM without unlabeled hMBP(90-102)): 0.02; Relative Release (HLA-DR1 molecules [4]): −0.33
Ac-LR L KLPK-NH2 (Ac-LRLKLPK-NH2; not fully specified; printed as Ac-LR L KLPK-NH2) [AE206]	5.0	2.7	0.58	0.08	0.03	−0.29	–
Ac-YRMK-NH2 [AE117]	4.4	2.3	–	–	–	–	–
